Source: patent US9340513B2, “Propenoate derivatives of betulin” (GlaxoSmithKline LLC, priority 2011, dated 2016)

Tested on: HIV-1 (strain IIIB)
Test: MT4 Cell Antiviral Assay
Format: cell-based
Conditions: Human immunodeficiency virus 1, 120 h; HIV-1 strain IIIB in MT4 cells, 5 days, Cell Titer-Glo; 50% decrease in HIV-induced cytopathic effect
Experimental: Antiviral HIV activity and compound-induced cytotoxicity were measured in parallel based on a modified protocol of the propidium iodide based procedure in the human T-cell lymphotropic virus transformed cell line MT4. Aliquots of the test compounds were serially diluted in DMSO plated in 96-well plates. Exponentially growing MT4 cells were harvested and pelleted. Cell pellets were resuspended in fresh medium (RPMI 1640, 10% FCS, and gentamycin. Cell aliquots were infected by the addition of HIV-1 (strain IIIB) diluted to give a viral multiplicity of infection of 300×TCID50/million cells. A similar cell aliquot was diluted with medium to provide a mock-infected control. Cell infection was allowed to proceed for 1 hr at 37° C. in a tissue culture incubator with humidified 5% CO2 atmosphere. After the 1 hr incubation the virus/cell suspensions were diluted with fresh medium, and added to each well of the plate containing pre-diluted compound. Plates were then placed in a tissue culture incubator with humidified 5% CO2 for 5 days. […] The plates were analyzed in an automated plate reader for luminescence.assay. The control and standard used was efavirinz tested over a concentration range of 0.001 to 1 μM in every assay. The expected range of IC50 values for efavirinz is 0.1 to 1 nM.
The antiviral effect of a test compound is reported as an IC50, i.e. the inhibitory concentration that would produce a 50% decrease in the HIV-induced cytopathic effect. This effect is measured by the amount of test compound required to restore 50% of the cell growth of HIV-infected MT4 cells, compared to uninfected MT4 cell controls. IC50 was calculated by RoboSage, Automated Curve Fitting Program.
For each assay plate, the results (of wells containing uninfected cells or infected cells with no compound were averaged, respectively. For measurements of compound-induced cytotoxicty, results from wells containing various compound concentrations and uninfected cells were compared to the average of uninfected cells without compound treatment. Percent of cells remaining is determined by the following formula: Percent of cells remaining=(compound-treated uninfected cells/untreated uninfected cells)×100.
A level of percent of cells remaining of 79% or less indicates a significant level of direct compound-induced cytotoxicity for the compound at that concentration. When this condition occurs the results from the compound-treated infected wells at this concentration are not included in the calculation of IC50.
For measurements of compound antiviral activity, results from wells containing various compound concentrations and infected cells are compared to the average of uninfected and infected cells without compound treatment. Percent inhibition of virus is determined by the following formula: Percent inhibition of virus=(1−((ave. untreated uninfected cells−treated infected cells)/(ave. untreated uninfected cells−ave. untreated infected cells)))×100

CC(C)C1=C2[C@H]3CC[C@@H]4[C@@]5(C)CC[C@H](OC(=O)CC(C)(C)C(=O)O)C(C)(C)[C@@H]5CC[C@@]4(C)[C@]3(C)CC[C@@]2(/C=C/C(=O)NC2(c3ccc(Cl)cc3)CC2)CC1=O [Example 1, 4-(((3aS,5aR,5bR,7aR,9S,11aR,11bR,13aS)-3a-((E)-3-((1-(4-Chlorophenyl)cyclopropyl)amino)-3-oxoprop-1-en-1-yl)-1-isopropyl-5a,5b,8,8,11a-pentamethyl-2-oxo-3,3a,4,5,5a,5b,6,7,7a,8,9,10,11,11a,11b,12,13,13a-octadecahydro-2H-cyclopenta[a]chrysen-9-yl)oxy)-2,2-dimethyl-4-oxobutanoic acid]
IC50: < 10 nM

CC(C)C1=C2[C@H]3CC[C@@H]4[C@@]5(C)CC[C@H](OC(=O)CC(C)(C)C(=O)O)C(C)(C)[C@@H]5CC[C@@]4(C)[C@]3(C)CC[C@@]2(/C=C/C(=O)Nc2ccc(Cl)cc2)CC1=O [Example 2, 4-(((3aS,5aR,5bR,7aR,9S,11aR,11bR,13aS)-3a-((E)-3-((4-Chlorophenyl)amino)-3-oxoprop-1-en-1-yl)-1-isopropyl-5a,5b,8,8,11a-pentamethyl-2-oxo-3,3a,4,5,5a,5b,6,7,7a,8,9,10,11,11a,11b,12,13,13a-octadecahydro-2H-cyclopenta[a]chrysen-9-yl)oxy)-2,2-dimethyl-4-oxobutanoic acid]
IC50: 10 to 250 nM

CC(C)C1=C2[C@H]3CC[C@@H]4[C@@]5(C)CC[C@H](OC(=O)CC(C)(C)C(=O)O)C(C)(C)[C@@H]5CC[C@@]4(C)[C@]3(C)CC[C@@]2(/C=C/C(=O)N[C@@H](C)c2ccc(Cl)cn2)CC1=O [Example 3, 4-(((3aS,5aR,5bR,7aR,9S,11aR,11bR,13aS)-3a-((E)-3-(((S)-1-(5-Chloropyridin-2-yl)ethyl)amino)-3-oxoprop-1-en-1-yl)-1-isopropyl-5a,5b,8,8,11a-pentamethyl-2-oxo-3,3a,4,5,5a,5b,6,7,7a,8,9,10,11,11a,1 b,12,13,13a-octadecahydro-2H-cyclopenta[a]chrysen-9-yl)oxy)-2,2-dimethyl-4-oxobutanoic acid]
IC50: < 10 nM

CC(C)C1=C2[C@H]3CC[C@@H]4[C@@]5(C)CC[C@H](OC(=O)CC(C)(C)C(=O)O)C(C)(C)[C@@H]5CC[C@@]4(C)[C@]3(C)CC[C@@]2(/C=C/C(=O)N[C@H](C)c2ccc(Cl)cc2)CC1=O [Example 4, 4-(((3aS,5aR,5bR,7aR,9S,11aR,11bR,13aS)-3a-((E)-3-(((R)-1-(4-Chlorophenyl)ethyl)amino)-3-oxoprop-1-en-1-yl)-1-isopropyl-5a,5b,8,8,11a-pentamethyl-2-oxo-3,3a,4,5,5a,5b,6,7,7a,8,9,10,11,11a,11b,12,13,13a-octadecahydro-2H-cyclopenta[a]chrysen-9-yl)oxy)-2,2-dimethyl-4-oxobutanoic acid]
IC50: 10 to 250 nM

CC(C)C1=C2[C@H]3CC[C@@H]4[C@@]5(C)CC[C@H](OC(=O)CC(C)(C)C(=O)O)C(C)(C)[C@@H]5CC[C@@]4(C)[C@]3(C)CC[C@@]2(/C=C/C(=O)N[C@H](C)c2ccc(Cl)cn2)CC1=O [Example 5, 4-(((3aS,5aR,5bR,7aR,9S,11aR,11bR,13aS)-3a-((E)-3-(((R)-1-(5-Chloropyridin-2-yl)ethyl)amino)-3-oxoprop-1-en-1-yl)-1-isopropyl-5a,5b,8,8,11a-pentamethyl-2-oxo-3,3a,4,5,5a,5b,6,7,7a,8,9,10,11,11a,1 b,12,13,13a-octadecahydro-2H-cyclopenta[a]chrysen-9-yl)oxy)-2,2-dimethyl-4-oxobutanoic acid]
IC50: < 10 nM

CC(C)C1=C2[C@H]3CC[C@@H]4[C@@]5(C)CC[C@H](OC(=O)CC(C)(C)C(=O)O)C(C)(C)[C@@H]5CC[C@@]4(C)[C@]3(C)CC[C@@]2(/C=C/C(=O)N[C@@H](C)c2ccc(Cl)cc2)CC1=O [Example 6, 4-(((3aS,5aR,5bR,7aR,9S,11aR,11bR,13aS)-3a-((E)-3-(((S)-1-(4-Chlorophenyl)ethyl)amino)-3-oxoprop-1-en-1-yl)-1-isopropyl-5a,5b,8,8,11a-pentamethyl-2-oxo-3,3a,4,5,5a,5b,6,7,7a,8,9,10,11,11a,11b,12,13,13a-octadecahydro-2H-cyclopenta[a]chrysen-9-yl)oxy)-2,2-dimethyl-4-oxobutanoic acid]
IC50: 10 to 250 nM

CC(C)C1=C2[C@H]3CC[C@@H]4[C@@]5(C)CC[C@H](OC(=O)CC(C)(C)C(=O)O)C(C)(C)[C@@H]5CC[C@@]4(C)[C@]3(C)CC[C@@]2(/C=C/C(=O)NC2(c3ccc(Cl)cn3)CC2)CC1=O [Example 7, 4-(((3aS,5aR,5bR,7aR,9S,11aR,11bR,13aS)-3a-((E)-3-((1-(5-Chloropyridin-2-yl)cyclopropyl)amino)-3-oxoprop-1-en-1-yl)-1-isopropyl-5a,5b,8,8,11a-pentamethyl-2-oxo-3,3a,4,5,5a,5b,6,7,7a,8,9,10,11,11a,11b,12,13,13a-octadecahydro-2H-cyclopenta[a]chrysen-9-yl)oxy)-2,2-dimethyl-4-oxobutanoic acid]
IC50: < 10 nM

CC(C)C1=C2[C@H]3CC[C@@H]4[C@@]5(C)CC[C@H](OC(=O)CC(C)(C)C(=O)O)C(C)(C)[C@@H]5CC[C@@]4(C)[C@]3(C)CC[C@@]2(/C=C/C(=O)N[C@@H](C)c2ccncn2)CC1=O [Example 8, 4-(((3aS,5aR,5bR,7aR,9S,11aR,11bR,13aS)-1-Isopropyl-5a,5b,8,8,11a-pentamethyl-2-oxo-3a-((E)-3-oxo-3-(((S)-1-(pyrimidin-4-yl)ethyl)amino)prop-1-en-1-yl)-3,3a,4,5,5a,5b,6,7,7a,8,9,10,11,11a,11b,12,13,13a-octadecahydro-2H-cyclopenta[a]chrysen-9-yl)oxy)-2,2-dimethyl-4-oxobutanoic acid]
IC50: 10 to 250 nM

CC(C)C1=C2[C@H]3CC[C@@H]4[C@@]5(C)CC[C@H](OC(=O)CC(C)(C)C(=O)O)C(C)(C)[C@@H]5CC[C@@]4(C)[C@]3(C)CC[C@@]2(/C=C/C(=O)N[C@H](C)c2ccncn2)CC1=O [Example 9, 4-(((3aS,5aR,5bR,7aR,9S,11aR,11bR,13aS)-1-Isopropyl-5a,5b,8,8,11a-pentamethyl-2-oxo-3a-((E)-3-oxo-3-(((R)-1-(pyrimidin-4-yl)ethyl)amino)prop-1-en-1-yl)-3,3a,4,5,5a,5b,6,7,7a,8,9,10,11,11a,11b,12,13,13a-octadecahydro-2H-cyclopenta[a]chrysen-9-yl)oxy)-2,2-dimethyl-4-oxobutanoic acid]
IC50: 10 to 250 nM

CC(C)C1=C2[C@H]3CC[C@@H]4[C@@]5(C)CC[C@H](OC(=O)CC(C)(C)C(=O)O)C(C)(C)[C@@H]5CC[C@@]4(C)[C@]3(C)CC[C@@]2(/C=C/C(=O)N[C@H](C)c2ncccn2)CC1=O [Example 10, 4-(((3aS,5aR,5bR,7aR,9S,11aR,11bR,13aS)-1-Isopropyl-5a,5b,8,8,11a-pentamethyl-2-oxo-3a-((E)-3-oxo-3-(((R)-1-(pyrimidin-2-yl)ethyl)amino)prop-1-en-1-yl)-3,3a,4,5,5a,5b,6,7,7a,8,9,10,11,11a,11b,12,13,13a-octadecahydro-2H-cyclopenta[a]chrysen-9-yl)oxy)-2,2-dimethyl-4-oxobutanoic acid]
IC50: 10 to 250 nM
